In patent US20210051949A1, “SOLID AGROCHEMICAL COMPOSITIONS” (UPL LTD, priority 2018, published 2021):

Tests used:
[1] = Physical parameters (active content, suspensibility, dispersibility, moisture, wet sieve) of a composition of 2,4-D acid, metsulfuron methyl and picloram acid; assay type: physicochemical; parameters: unit not given here
Text: Physical Parameters of a Composition Comprising 2, 4-D Acid, Metsulfuron Methyl and Picloram Acid:
Physical parameters such as suspensibility, dispersibility has been tested for a composition prepared according to the present invention are listed in the below table (Table 2).
As evident from the Table 2, the physical parameters such as suspensibility and dispersibility of the compositions prepared according to the present invention satisfies the requirement for a stable formulation.

[2] = Comparative study of degradation of metsulfuron methyl in compositions with 2,4-D acid or 2,4-D sodium salt plus picloram (accelerated heat stability); assay type: physicochemical; settings: for Active content: picloram, metsulfuron methyl
Method: Degradation of Metsulfuron Methyl in Compositions with 2,4-D Acid and 2,4-D Sodium Salt: Comparative Study
A comparative study of degradation of metsulfuron methyl in composition of 2,4-D acid and 2,4-D sodium salt in combination with picloram was carried out. The results are summarized in the below table (Table 1):
The study was conducted at 0 days as well as after 14 days at 54° C. (accelerated heat stability conditions).

[3] = composition with 2,4-D acid, 0 days
[4] = composition with 2,4-D acid, 14 days at 54° C.
[5] = composition with 2,4-sodium salt, 0 days
[6] = composition with 2,4-sodium salt, 14 days at 54° C.

O=C(O)COc1ccc(Cl)cc1Cl [2,4-D acid, 2,4-dichlorophenoxy acetic acid]
Active ingredient (content) ([1]; 14 Day AHS): 319.6
Suspensibility ([1]; 14 Day AHS): 99.10
Active ingredient (content) ([1]; Ambient): 320.5
Suspensibility ([1]; Ambient): 99.96
Active content [2, 3]: 333.03 gm
Active content [2, 4]: 325.01 gm
% degradation after 14 days [2, 4]: 2.41%
Active content [2, 5]: 325.28 gm
Active content [2, 6]: 328.01 gm
% degradation after 14 days [2, 6]: 0.84%

COC(=O)c1ccccc1S(=O)(=O)NC(=O)Nc1nc(C)nc(OC)n1 [Metsulfuron methyl]
Active ingredient (content) ([1]; 14 Day AHS): 39.30
Suspensibility ([1]; 14 Day AHS): 99.75
Active ingredient (content) ([1]; Ambient): 42.3
Suspensibility ([1]; Ambient): 100.90
Active content [2, 3]: 46.06 gm
Active content [2, 4]: 44.42 gm
Active content [2, 5]: 49.78 gm
Active content [2, 6]: 43.88 gm

Nc1c(Cl)c(Cl)nc(C(=O)O)c1Cl [Picloram acid, Picloram]
Active ingredient (content) ([1]; 14 Day AHS): 105.5
Suspensibility ([1]; 14 Day AHS): 99.61
Active ingredient (content) ([1]; Ambient): 106.5
Suspensibility ([1]; Ambient): 100.50
Active content [2, 3]: 98.96 gm
Active content [2, 4]: 98.05 gm
% degradation after 14 days [2, 4]: 0.92%
Active content [2, 5]: 95.65 gm
Active content [2, 6]: 95.59 gm
% degradation after 14 days [2, 6]: 0.06%
